Assay results reported in patent US8273723B2, “Compositions and methods for improved glycoprotein sialylation” (Sigma-Aldrich Co. LLC, priority 2007, dated 2012).

Columns and labels:
[1] = test system: proteins encoded by the CHO Neu1, Neu2, and Neu3 genes; assay: Sialidase assay in the presence of sialidase inhibitors, all sialidases; format: biochemical, CHO (Chinese hamster ovary); conditions: two concentrations, FIG. 2
Protocol: (§1) Enzymatic sialidase activity studies were performed to confirm that the proteins coded by these two new genes having the expected functions in CHO cells. Briefly, the coding regions for the Neu1 (SEQ ID NO:1) and Neu3 (SEQ ID NO:3) genes, as well as the coding region of the previously reported Neu2 gene (Ferrari et al. (1994) Glycobiology 4(3):367-373) were cloned into pcDNA3.1 mammalian expression vectors. The expression constructs then were transfected into COS7 cells to overexpress the sialidase proteins. The pcDNA3.1 vector alone was also transfected into COS7 cells as the mock transfection. An expression construct containing green fluorescence protein (GFP) was cotransfected into the COS7 cells to normalize the transfection efficiency.
(§2) Twenty-four hours after transfection, the cells were lysed by sonication. The cell debris was removed by centrifugation at 1000×g for 10 min at 4° C. and the supernatant factions were collected for enzymatic activity. The sialidase assay was performed as previously described (Gramer et al. (1993) Biotechnol Prog 9: 366-373) using 1 mM of 4-methylumbelliferone-Neu5Ac as substrate. For each lysate, 100 μg of protein was used in the assay. The assay was performed in triplicate. […] In fact, the Neu3 protein had more than approximately 6-15 times as much activity as Neu2. […]

CHO Neu3 = assay: Sialidase assay in the presence of sialidase inhibitors, CHO Neu3; format: biochemical, CHO (Chinese hamster ovary)
Protocol: as §1, §2

[2] = test system: hIFNγ protein produced by CHO-hIFNγ cells; assay: Sialic acid content of purified hIFNγ from shRNA CHO cells by HPLC; format: cell-based, CHO (Chinese hamster ovary); conditions: for levels of sialic acid in hIFNγ protein versus non-target shRNA control: day 6; for sialic acid content of hIFNγ protein: n=4
Protocol: The levels of sialic acid were analyzed by HPLC in human IFNγ protein produced by the sialidase shRNA targeted cells and non-target shRNA control cells. Spent media samples were collected from 5 L bioreactor cultures at stationary phase (day 6, cell viability around 95%) and death phase (day 13, cell viability around 20%). Human interferon gamma proteins were purified from cell culture supernatants by immunoaffinity purification. Briefly, after centrifugation and filtration to remove cell debris, 30 ml of a protein sample was loaded on an affinity column conjugated with hIFNγ antibody. After washing the column, hIFNγ protein was eluted with elution buffer. Purification was carried out on an AKTA Explorer 100 chromatographic system (Amersham Biosciences). The purified protein was quantified by ELISA as previously described.
The sialylation of purified hIFNγ proteins were analyzed by HPLC. Briefly, 50 μg of purified hIFNγ protein sample was lyophilized and resuspended in 100 μl of ultrapure water with 2N acetic acid. The sample was hydrolyzed at 80° C. for 3 hours. Then the sample was filtered and speed-vac dried. Released sialic acid residues were derivatized with a fluorogenic compound, 1,2-diamino-4,5-(methylenedioxy)benzene (DMB), followed by HPLC using C18 reverse phase column.

Neu1 mRNA = assay: Q-RT PCR of Neu1 mRNA in stably shRNA-transduced CHO-hIFNγ cells; format: cell-based, CHO (Chinese hamster ovary); conditions: FIG. 7A
Protocol: (§3) The expression of each of the three CHO sialidase genes was knocked down using small interfering RNA (siRNA) technologies. Based on the cDNA sequences, several siRNAs against the CHO sialidase genes (Neu1, Neu2, and Neu3) were designed and synthesized for each gene. These siRNAs were transfected into a CHO cell line stably expressing human interferon gamma (CHO-hIFNγ). The transfections were performed in duplicate. Forty-eight hours after transfection, the cells were harvested. RNA and protein were isolated from the transfected cells. Reverse transcription polymerase chain reaction, (RT-PCR) and quantitative RT-PCR (Q-RT-PCR) using gene-specific primers were performed using standard procedures.
(§4) DNA fragments encoding the effective siRNAs for each sialidase gene (Neu1-S4, Neu2-S3, Neu3-S2) were cloned into the pLKO.1-puro shRNA expression vector. After DNA sequencing confirmation, plasmid DNAs were transfected into HEK293 cells to produce lentivirus packed with shRNA cassettes. After infection of suspension CHO-hIFNγ cells with lentivirus containing shRNA cassettes and puromycin selection, CHO-hIFNγ cells harboring shRNA cassettes for Neu1, Neu2 and Neu3 genes were obtained. Q-RT PCR was performed to confirm gene-silencing effects at the level of mRNA (FIG. 7). […]

Neu2 mRNA = assay: Q-RT PCR of Neu2 mRNA in stably shRNA-transduced CHO-hIFNγ cells; format: cell-based, CHO (Chinese hamster ovary); conditions: FIG. 7B
Protocol: as §3, §4

Neu3 mRNA = assay: Q-RT PCR of Neu3 mRNA in stably shRNA-transduced CHO-hIFNγ cells; format: cell-based, CHO (Chinese hamster ovary); conditions: FIG. 7C
Protocol: as §3, §4

[3] = test system: sialidase activity in CHO-hIFNγ cells; assay: Sialidase activity assay in CHO-hIFNγ cells harboring shRNA; format: cell-based, CHO (Chinese hamster ovary); conditions: stable shRNA, FIG. 8
Protocol: (§5) Twenty-four hours after transfection, the cells were lysed by sonication. The cell debris was removed by centrifugation at 1000×g for 10 min at 4° C. and the supernatant factions were collected for enzymatic activity. The sialidase assay was performed as previously described (Gramer et al. (1993) Biotechnol Prog 9: 366-373) using 1 mM of 4-methylumbelliferone-Neu5Ac as substrate. For each lysate, 100 μg of protein was used in the assay. The assay was performed in triplicate. […] In fact, the Neu3 protein had more than approximately 6-15 times as much activity as Neu2.
as §4, with “7). The mRNA expression knockdown of Neu1 (Neu1-S4) was over 95% in Neu1-shRNA cells (FIG. 7A), about 50% knockdown with Neu2 (Neu2-S3) in Neu2-shRNA cells (FIG. 7B), and over 70% knockdown with Neu3 (Neu3-S2) in Neu3-shRNA cells (FIG. 7C).” for “7).”

[4] = Sialidase assay on lysates of COS7 cells overexpressing CHO sialidase proteins; format: biochemical, CHO (Chinese hamster ovary)
Protocol: as §1, §5

CC(=O)N[C@H]1[C@H]([C@H](O)[C@H](O)CO)OC(C(=O)O)=C[C@@H]1O [Neu5Ac2en]
inhibitory effect on sialidase activity (comparison of the two inhibitors) [1]: greater inhibitory effects than Neu5Ac | decrease of sialidase activity (CHO Neu3; 0.1 mM inhibitor): about 30% | reduction of sialidase activity (CHO Neu3; 0.5 mM inhibitor): about 60%

Neu1-S4: siRNA/shRNA against CHO Neu1; sense GGACACUACGCGUCAUCUGtt (SEQ ID NO 10), antisense CAGAUGACGCGUAGUGUCCtt (SEQ ID NO 11) (sense GGACACUACGCGUCAUCUGTT; antisense CAGAUGACGCGUAGUGUCCTT; chemistry not given here; listed as Cricetulus griseus)
levels of sialic acid in hIFNγ protein versus non-target shRNA control [2]: not significantly different | sialylation of hIFNγ versus non-target shRNA control ([2]; day 13): no obvious improvement | mRNA expression knockdown of Neu1 (Neu1 mRNA): over 95%

Neu2-S3: siRNA/shRNA against CHO Neu2; sense GACGGAUGAGCAUGCAGAUtt (SEQ ID NO 14), antisense AUCUGCAUGCUCAUCCGUCtt (SEQ ID NO 15) (sense GACGGAUGAGCAUGCAGAUTT; antisense AUCUGCAUGCUCAUCCGUCTT; chemistry not given here; listed as Cricetulus griseus)
levels of sialic acid in hIFNγ protein versus non-target shRNA control [2]: not significantly different | sialic acid content of hIFNγ protein ([2]; day 6 (stationary phase)): 1.945±0.111 pmol sialic acid/pmol hIFNγ | sialic acid content of hIFNγ protein ([2]; day 13 (death phase)): 4.948±0.150 pmol sialic acid/pmol hIFNγ | mRNA expression knockdown of Neu2 (Neu2 mRNA): about 50%

Neu3-S2: siRNA/shRNA against CHO Neu3; sense GUACCAGCCGUGUGUUACUtt (SEQ ID NO 18), antisense AGUAACACACGGCUGGUACtt (SEQ ID NO 19) (sense GUACCAGCCGUGUGUUACUTT; antisense AGUAACACACGGCUGGUACTT; chemistry not given here; listed as Cricetulus griseus)
mRNA expression knockdown of Neu3 (Neu3 mRNA): over 70% | sialic acid content of hIFNγ protein ([2]; day 6 (stationary phase)): 2.133±0.101 pmol sialic acid/pmol hIFNγ | sialidase activity compared to non-target shRNA control [3]: most dramatic reduction

B1: CHO Neu3: CHO plasma membrane-associated sialidase, 417 aa, SEQ ID NO:4 (protein, listed as Cricetulus griseus)
chain: MEEVSACSLNSTLFQQEHQKGTTYRIPALLYIPPSHTFLAFAEKRSSSKDVDALHLVLRRGVMKGHSVEWGPLQPLMEATLPGHRTMNPCPVWEQSTSRVLLFFICVPDRVTEHWQIRSGKNAARLCFLCSQDAGCSWGEVKDLTEEVIGSELKHWATFAVGPGHGIRLQSGRLIIPTYAYYFSCRFLCFPCSVKPHSLMIYSDDLGVTWHHGKLIGPQVTGECQVAEVTGTSGNLVLYCNARTPNRFRAESFSTDYGDCFQKPTLNTQLCEPRYGCQGSIVSFQPLKMPFSQDPIGKAAPTTQKSPLLDSFLEREEGVGRPSGTWLLYSHPTSKKRRINLGIYYNRNPLEVTCWSRPWILHCGPCGYSDLAVVEEQGLFACLFECGQEHECEQIAFRLFSVQEVLSCEDCTGPSRD
sialic acid content of hIFNγ protein ([2]; day 13 (death phase)): 5.175±0.414 pmol sialic acid/pmol hIFNγ | sialidase activity compared to negative control (mock transfection) and positive control (Neu2) ([4]; 100 μg lysate protein, 1 mM 4-methylumbelliferone-Neu5Ac, normalized with GFP readings): significant sialidase activities | sialidase activity relative to Neu2 ([4]; more than approximately, lysates of transfected COS7 cells): 6-15 times
